Test results from US4428956A, “4-Hydroxy-5-substituted-3-(2H)-isothiazolone-1,1-dioxide derivatives useful in treating urinary tract calcium oxalate lithiasis” (Merck & Co., Inc., priority 1980, dated 1984).

Biological target: T1, pig liver glycolate oxidase (Sus scrofa, UniProt I3LVF1)
T1 construct: The enzyme was pig liver glycolate oxidase; from tissue; host or cells: pig liver
T1 sequence (I3LVF1 1-370): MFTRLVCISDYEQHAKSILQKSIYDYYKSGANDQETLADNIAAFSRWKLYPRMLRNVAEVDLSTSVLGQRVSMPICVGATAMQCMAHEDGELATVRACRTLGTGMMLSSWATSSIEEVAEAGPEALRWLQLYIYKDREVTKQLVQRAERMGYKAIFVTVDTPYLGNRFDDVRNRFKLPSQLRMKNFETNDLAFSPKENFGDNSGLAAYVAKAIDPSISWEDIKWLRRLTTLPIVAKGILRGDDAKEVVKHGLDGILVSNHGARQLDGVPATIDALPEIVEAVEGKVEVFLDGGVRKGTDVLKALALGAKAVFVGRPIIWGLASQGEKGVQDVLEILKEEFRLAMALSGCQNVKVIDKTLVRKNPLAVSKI
Test: Glycolate Oxidase Enzyme Inhibition
Assay type: biochemical
Settings: 25° C., 0.10 M phosphate buffer, pH 7.0, 3 mM EDTA; 5×10^-5 M sodium 2,6-dichlorophenol-indophenol, 2×10^-4 M sodium glycolate; initial rates 1 to 3 min., 600 nm
Procedure: The usefulness of the compounds of the present invention in treating urinary tract, especially renal, calcium oxalate lithiasis, was shown by the ability of those compounds to inhibit the glycolate oxidase enzyme. […] The activity of the enzyme, in turn, was measured by following the rate of reduction of sodium 2,6-dichlorophenol-indophenol by sodium glycolate in the presence of the enzyme. The enzyme was pig liver glycolate oxidase. The reaction was followed spectrophotometrically at 600 nm. The assay was conducted at 25° C. in a 0.10 M phosphate buffer, pH 7.0, containing 3 mM EDTA. Initial substrate concentrations were 5×10^-5 M of sodium 2,6-dichlorophenol-indophenol and 2×10^-4 M of sodium glycolate. Reactions were initiated by the addition of enzyme. Initial rates during the period from 1 to 3 min. after the addition of enzyme were recorded on a Beckman Acta M-VI spectrophotometer. One control was run simultaneously with three test reactions, and all initial rates were adjusted to a common control rate. For further details of this procedure, see Randall et al., J. Med. Chem. 22, 6, 612 (1979).

O=C1NS(=O)(=O)C(c2ccccc2)=C1O [4-Hydroxy-5-phenyl-3(2H)-isothiazolone-1,1-dioxide]
IC50: 2.1 µM
